# Like-named read-outs stand apart in the source and are kept apart here.
# Legend:
# human PC cell lines = test: IC50 in commonly used human PC cell lines; type: cell-based
# [1] = system: ex vivo propagated CTCs from human PC patients (3D spheroids); test: Cytotoxicity in ex vivo propagated prostate cancer CTCs grown as 3D spheroids
# [2] = system: PC cell lines (PC3, LNCaP, C4-2, C4-2B, 22Rv1); test: Viability of immortalized prostate cancer cell lines grown as 2D monolayers; type: cell-based, human; conditions: 72 hours of drug exposure
# Experimental: (§1) Immortalized PC cell lines (PC3, LNCaP, C4-2, C4-2B, 22Rv1) and 3-D spheroid growth of mouse bone marrow-derived LNCaP and C4-2B and ex vivo expanded CTCs from patients were used. […] Induction of apoptosis was assessed by caspase 3/7 luminescent assay. Growth inhibitory effects were compared between 2-D and 3-D. Senescent luciferase-tagged LNCaP and C4-2B cells from mouse bone marrow regained growth potential when propagated in vitro as 3D spheroids. RPMI medium supplemented with 10% FBS and 1% penicillin/streptomycin was used to grow CTCs in vitro.
# [3] = system: ex vivo expanded CTCs from PC patients and LNCaP and C4-2B cells from mouse bone marrow, 3-D spheroids; test: Viability/apoptosis of PC CTCs and bone marrow-derived LNCaP and C4-2B grown as 3-D spheroids; type: cell-based, human
# Experimental: as §1
# Resistant C4-2B PC cells = test: Growth inhibition of AA/EZ resistant C4-2B PC cells cultured as 2D monolayer; type: cell-based; conditions: Homo sapiens
# Naive C4-2B PC cells = test: Growth inhibition of naive C4-2B PC cells cultured as 2D monolayer; conditions: for IC50: Homo sapiens
# [4] = system: Namalwa and Raji cell lines; test: Apoptosis by caspase 3/7 luminescent assay and western blot in BL cell lines; type: cell-based, human; conditions: 24 hours of drug exposure, 8, 16, 32 μM
# Experimental: Namalwa cells are cultured in RPMI 1640, 10% fetal bovine serum, 1% PenStrep, and placed in a humidified atmosphere containing 5% CO2 at 37° C. 10,000-15,000 cells/well are seeded in 96 white wall well plates in 100 microliter medium/per well for 24 h. […] 100 microliters of Caspase-Glo 3/7 assay is added and luminescence is then read. Caki-1 cells are cultured in RPMI 1640, 10% fetal bovine serum, 1% PenStrep, and placed in a humidified atmosphere containing 5% CO2 at 37° C. 5,000 cells/well are seeded in 96 white wall well plates in 100 microliter medium/per well for 24 h. […] 100 microliters of Caspase-Glo 3/7 assay is added and luminescence is then read.
# c-myc = c-myc western blot in BL cell lines; type: cell-based, human
# bcl-2 = bcl-2 western blot in BL cell lines; type: cell-based, human
# Namalwa tumors = test: Namalwa xenograft growth in mice; type: in vivo, mouse; conditions: equimolar doses i.p. 3 times a week
# mouse kidneys = test: Kidney histopathology, AKI-associated tubular injury score, Namalwa-bearing mice; conditions: i.p. 3 times a week for 4 weeks
# Experimental: FIG. 27 depicts in accordance with various embodiments of the invention, formalin-fixed kidney sections are stained with hematoxylin and esosin and scored using a semiquantitative scale designed to assess AKI-associated tubular injury (tubular epithelial cell loss, necrosis, tubular epithelial simplification, intratubular debris, and casts).
# (§2) Induction of apoptosis was assessed using a caspase 3/7 luminescent assay. Cleavage of apoptosis substrates and inhibition of c-myc was determined by western blotting, with images quantified by ImageJ after normalization with GAPDH. […] Formalin-fixed tumor and kidney sections were stained with hematoxylin and esosin and kidney sections scored using a semiquantitative scale designed to assess AKI-associated tubular injury (tubular epithelial cell loss, necrosis, tubular epithelial simplification, intratubular debris, and casts).
# [5] = system: renal (ACHN, o-786, SKRC, Caki-1), breast (MCF-7), lung (H358), liver (HepG2), prostate (PC3, LNCaP, C4-2B), pancreatic (MIAPaCa II) and glioblastoma (U87) …; test: Cell inhibition by NIR-783 dye in a cancer cell line panel; type: cell-based; conditions: in vitro
# [6] = system: Ramos, a B-cell lymphoma, 3-D spheroids; test: Cytotoxicity in Ramos B-cell lymphoma 3-D spheroids; type: cell-based
# [7] = system: ex vivo propagated CTCs from human PC patients (3D spheroids)
# [8] = system: PC cells, 3D spheroids vs 2D monolayer; conditions: average
# [9] = system: pancreatic and breast cancer CTCs; conditions: 3-D spheroids
# [10] = system: Prostate circulating tumor cells CTC 864; conditions: 4 μM, 24 hours; vs control, docetaxel 1.25 μM, abiraterone acetate 3.125 μM
# PC3 tumor xenograft = conditions: PC3 tumors in mouse; listed as dye-simvastatin
# PDAC tumors = conditions: imaged 3 days after i.p. administration
# [11] = system: ovarian tumor cells OV90 and OVCA433; conditions: in vitro
# [12] = system: RCC cell lines Caki-1, o-786, ACHN and SK-RC; test: Growth and viability of RCC cell lines, 72 h exposure (crystal violet); type: cell-based, human; conditions: range over all RCC cell lines tested
# Experimental: (§3) 5,000 cells/well renal cancer cells and 10,000 cells/well lymphoma cells are seeded in 96 well plates in 100 microliter medium/per well for 24 h. […] Renal cancer cells are fixed with 3.7% paraformaldehyde for 15 minutes and are stained with Crystal violet solution (0.5% in 25% methanol) for 30 minutes. After rinsing with water cell layers are dried and decolorized with Sorenson citrate with shaking for 20 minutes. […] Lymphoma cell growth was evaluated using MTT and cells are incubated for 4 hours.
# Apoptosis was assessed by caspase 3/7 luminescent assay. Cleavage of apoptosis substrates was determined by western blotting. […] Formalin-fixed tumor, liver and kidney sections were stained with H&E and kidney sections were scored semiquantitativey.
# [13] = system: B-cell lymphoma cell lines Namalwa, Raji, CA46, Ramos, Daudi; test: Growth and viability of B-cell Burkitt's lymphoma cell lines, MTT, 72 h; type: cell-based, human; conditions: 72 h exposure; range over all BL cell lines tested
# Experimental: as §3, §2
# microtubule = test: Microtubule dynamics in PC cells; type: cell-based
# Experimental: Microtubule dynamics are measured in NIR-SM or SM treated PC cells in the presence or absence of DT according to published protocols. Microtubule dynamics are assessed by fluorescence imaging methods, where immunolabeled tubulin is the readout for measurements of polarized forced generation, contractility and response to substrate stiffness measured in the presence of DT using established protocols. […] We test other agents, such as nocodazole and vincristine, which without being bound by theory we hypothesize block the polymerization of tubulin into microtubules, and cold temperature that can cause a rapid depolymerization of microtubules. With these controls, we determine if NIR-SM or SM may differ in enhancing the activity of DT in promoting microtubule polymerization in PC cells.
compound,measurement,setting,value
"CCC(C)(C)C(=O)O[C@H]1C[C@@H](C)C=C2C=C[C@H](C)[C@H](CC[C@@H]3C[C@@H](O)CC(=O)O3)[C@H]21 [SM, Simvastatin, reference compound]",IC50,"human PC cell lines; Homo sapiens, range over cell lines, dependent upon the cell types",1 to 7 µM
same,IC50,[1]; ex vivo propagated CTCs,20 µM
Nc1ccn([C@@H]2O[C@H](CO)[C@@H](O)C2(F)F)c(=O)n1 [gemcitabine],sensitivity of cells grown as 2D monolayers,[2],sensitive
"CNC(=O)c1ccc(N2C(=S)N(c3ccc(C#N)c(C(F)(F)F)c3)C(=O)C2(C)C)cc1F [EZ, enzalutamide]",sensitivity of cells grown as 2D monolayers,[2],sensitive
same,sensitivity of cells grown as 3-D spheroids,[3],resistance with no signs of apoptosis
"CC(=O)O[C@H]1CC[C@@]2(C)C(=CC[C@@H]3[C@@H]2CC[C@]2(C)C(c4cccnc4)=CC[C@@H]32)C1 [AA, abiraterone acetate]",IC50,Resistant C4-2B PC cells; NIR-SM 0 μM,13.3 µM
same,IC50,Resistant C4-2B PC cells; NIR-SM 0.25 μM,3.32 µM
same,sensitivity of cells grown as 2D monolayers,[2],sensitive
same,sensitivity of cells grown as 3-D spheroids,[3],resistance with no signs of apoptosis
same,IC50,"Naive C4-2B PC cells; read-out: AA IC50, Naive C4-2B, 2D monolayer, NIR-SM 0 μM",6.79 µM
same,IC50,"Naive C4-2B PC cells; read-out: AA IC50, Naive C4-2B, 2D monolayer, NIR-SM 0.25 μM",1.65 µM
DZ-1-cisplatin [NIR dye-cisplatin],"induction of apoptosis (caspase 3/7; caspase 9, caspase 3 and PARP)",[4],induces apoptosis
same,c-myc expression,c-myc,downregulates
same,bcl-2 expression,bcl-2,no significant changes
same,tumor growth inhibition,Namalwa tumors,tumor growth inhibition and apoptotic nuclear lobulation/fragmentation
same,kidney toxicity (histopathology),mouse kidneys,preserved the integrity and normal morphology of mouse kidneys
CC1(C)C(=CC=C2CCCC(C=CC3=[N+](CCCCS(=O)(=O)[O-])c4ccccc4C3(C)C)=C2Cl)N(CCCCS(=O)(=O)[O-])c2ccccc21.[Na+] [NIR-783],cell inhibition effect,[5],does not exhibit significant cell inhibition effect
"CCC(C)(C)C(=O)O[C@H]1C[C@@H](C)C=C2C=C[C@H](C)[C@H](CC[C@@H]3C[C@@H](OC(=O)CCCCCN4/C(=C/C=C5\CCCC(/C=C/C6=[N+](CCCCS(=O)(=O)[O-])c7ccccc7C6(C)C)=C5Cl)C(C)(C)c5ccccc54)CC(=O)O3)[C@H]21 [NIR-SM, DZ-1-Simvastatin Conjugate]",effect on the growth of PC cells,human PC cell lines; 0.25 μM,marginal effects
same,potency relative to unconjugated simvastatin,[6],about 5 fold
same,synergized cisplatin cytotoxicity,[6],over 190 fold
same,IC50,[7],5 µM
same,"enhancement of the cytotoxicity exerted by AA, EZ or DT",[7],21-122 fold
same,accumulation in PC 3D spheroids higher than in PC 2D monolayer,[8],5 fold
same,synergy with enzalutamide (Enz) and abiraterone acetate (Abi) growth inhibition,C4-2B cells,synergizes the growth inhibitory effects of anti-androgens
same,synergy with docetaxel growth inhibition,C4-2B cells; conjugate at 2 uM,synergizes the growth inhibitory effects of docetaxel
same,effectiveness relative to unconjugated simvastatin,[9],more effective than unconjugated simvastatin
same,rate of apoptosis (caspase 3/7),[10],significantly higher rate of apoptosis
same,accumulation in tumor,PC3 tumor xenograft,selective accumulation
same,tumor targeting,PDAC tumors,targets specifically PDAC tumors
same,sensitivity of cell growth relative to unconjugated drug,[11],more sensitive
same,sensitization of the cytotoxic effects of AA and EZ,"Naive C4-2B PC cells; NIR-SM 0.25 μM, both control and AA/EZ resistant PC cells in the C4-2B background",4-5 fold
same,IC50 lower than SM,[1],about 4 fold
same,effectiveness relative to unconjugated simvastatin,[1],more effective than unconjugated simvastatin
"N.N.[Cl][Pt][Cl] [cisplatin, reference compound]",IC50,[12],> 64 µM
same,IC50,[13],> 64 µM
same,"induction of apoptosis (caspase 3/7; caspase 9, caspase 3 and PARP)",[4]; listed as Cis,no sign of increased apoptotic activity
same,bcl-2 expression,bcl-2,no significant changes
"CC(=O)O[C@@]12CO[C@@H]1C[C@H](O)[C@@]1(C)C(=O)[C@H](O)C3=C(C)[C@@H](OC(=O)[C@H](O)[C@@H](NC(=O)OC(C)(C)C)c4ccccc4)C[C@@](O)([C@@H](OC(=O)c4ccccc4)[C@H]21)C3(C)C [DT, docetaxel]",sensitivity of cells grown as 2D monolayers,[2],sensitive
same,sensitivity of cells grown as 3-D spheroids,[3],resistance with no signs of apoptosis
same,effect on microtubules,microtubule,enhances microtubule polarization and inhibits shrinkage of microtubule length

# From patent US20190269801A1 (CEDARS-SINAI MEDICAL CENTER, priority 2016, published 2019)
